This is an account of results in paper PMC9775652, “Concomitant Administration of Red Ginseng Extract with Lactic Acid Bacteria Increases the Plasma Concentration of Deglycosylated Ginsenosides in Healthy Human Subjects” (Biomolecules, 2022).

What is called AUC is concentration integrated over time. One may read the Cmax as the highest concentration seen after dosing. One may read the MRT as the average time that molecules of a dose stay in the body. The Tmax is the time at which the peak concentration occurs.

Where two headings read alike, the source gives them in different places.

One data set has as its target T1, P-gp (Homo sapiens, UniProt P08183).
T1 construct: host or cells: LLC-PK1-P-gp cells (passage no. 25–28)
Nature of the data set: Transport of ginsenosides in P-gp-overexpressing LLC-PK1-P-gp cells. It counts as in vitro ADME. As for the experimental part:
LLC-PK1-P-gp cells (passage no. 25–28) were seeded onto collagen-coated permeable support (1.0 μm pore size) in 24-well plates at a density of 2.5 × 10^4 cells/insert and grown for 5 days with TEER values of over 500 Ω·cm^2 [24]. The A to B transport and B to A transport of GRg3, GRh2, CK, PPD, GRg1, GRh1, and PPT (20 μM each) were measured as previously described. The concentration dependency in the B to A transport of GRh2, CK, PPD, and PPT was measured in the range of 6.25–200 μM for GRh2, CK, PPD, and PPT.
(§1) For the transport study of ginsenosides in CaCo-2 cells and LLC-PK1-P-gp cells, the ginsenoside transport rate in the A to B or B to A directions was calculated from the slope of the regression line from the mean transported amounts versus time plot. The apparent permeability (Papp) was calculated using Equation (1). (1) Papp (×10^−6 cm/s)=transport rate (nmol/min)/concentration(μM)×area(cm^2)×60s
(§2) The efflux ratio was calculated by dividing the Papp of ginsenosides from the B to A direction by that from the A to B direction.
To measure the kinetic parameters of the concentration dependence on the P-gp-mediated ginsenoside efflux, the ginsenoside transport rate in the B to A direction (ν) versus the ginsenoside concentration (S) plot was fitted in the Michaelis–Menten Equation (2) using Sigma Plot (version 12.0, Systat Software Inc. Chicago, IL, USA). (2) ν=Vmax×S/Km+S

On the set-up of data set [1]: method as in PMID 34575573. To be noted: mice, LAB supplementation (Lacto-fit) for two weeks; cited from earlier work.
For a further data set, the system named is LAB. Description: In vitro RGE fermentation with LAB. It counts as in vitro ADME. Particulars: RGE incubated with LAB (1 billion CFU) for 7 days at 37 °C; result in words. As for the experimental part:
To identify the effects of LAB on ginsenoside metabolism, an in vitro fermentation study was performed according to the method of Jeon et al., with slight modifications. Briefly, RGE (10 mL, 1 pouch) and 2 g LAB (containing 1 billion CFU) were suspended in 10 mL autoclaved MRS broth (550 mg broth powder dissolved in 10 mL water). For the 15 ginsenosides, individual ginsenosides (10 μM each) and 2 g of LAB were suspended in 20 mL of autoclaved MRS broth (550 mg broth powder dissolved in 20 mL water). The mixture was incubated for 7 days in a shaking incubator at 37 °C and 300 rpm, and a 0.1 mL aliquot of the incubation mixture was collected on days 0, 3, 5, and 7. The incubation medium was diluted 100-fold with distilled water and stored at −80 °C to analyze ginsenosides using the LC-MS/MS system.
To measure the metabolic activity of ginsenosides, the formation rate of ginsenosides (pmol/day) was calculated by dividing the slope of the regression line by the amount of deglycosylated ginsenosides versus the incubation time plot by the initial concentration of individual ginsenosides.

A short description of data set [2]: Transport (permeability) of ginsenosides in CaCo-2 cell monolayers. It counts as in vitro ADME. Particulars: human, Caco-2, Efflux ratio (ER). The procedure: CaCo-2 cells (passage no 41–43) were seeded onto collagen-coated permeable support (1.0 μm pore size) in a 24-well plate at a density of 2.5 × 10^4 cells/insert and cultured for 21 days in Dulbecco’s modified eagle’s medium supplemented with 10% fetal bovine serum, 1% non-essential amino acids, and 1% penicillin-streptomycin at 37 °C in a humidified atmosphere (5% CO2/95% air). After confirming that the transepithelial electrical resistance (TEER) of the CaCo-2 cell monolayer was over 400 Ω·cm^2, Apical to basal (A to B) transport and B to A transport of ginsenosides using 50 µM, GRb1 was investigated as previously described. The same permeability study was performed using 50 µM GRb2, GRc, GRd, GRg3, GRh2, GF2, CK, PPD, GRe, GRf, GRg1, GRh1, GF1, or PPT.
as §1, §2
(Passage across Caco-2 layers is used to estimate intestinal permeability.)

Data set [3] can be described thus: Pharmacokinetic study of ginsenosides in healthy humans after repeated oral RGE with or without LAB. Particulars: male, human, in vivo, po; for AUC: 104.1 mg. It counts as in vivo, human. As for the experimental part:
A single-sequence study consisting of two periods was conducted on five healthy male subjects (body weight > 50 kg and age > 19 years) for 29 days. During the first period of the study (RGE treatment group), three pouches of RGE (30 mL, 104.1 mg of total ginsenosides) were administered to 5 subjects once daily for 14 days. On the 14th day, the subjects were admitted to the Clinical Trial Center of KNUH at 7 AM and underwent the last RGE administration at approximately 8–9 AM. Blood samples (approximately 3 mL) were collected at 0, 4, 6, 8, 10, 12, 13, 14, and 24 h after the last dose. A saline-locked angiocatheter was placed on the forearm of each subject’s hand. After discarding 1 mL of blood derived from the catheter, 3 mL of blood was drawn into a vacutainer tube containing heparin and centrifuged at 3000× g for 10 min. The supernatant plasma samples were stored at −80 °C until ginsenoside analysis.
In the second half of the study (RGE + LAB treatment group), 3 pouches of RGE (30 mL, 104.1 mg of total ginsenosides) and 1 pouch of LAB (1 billion CFU/2 g) were co-administered once daily for 14 days. On the […], the subjects were admitted to the Clinical Trial Center of KNUH at 7 AM and received the last red ginseng dose at approximately 8–9 AM. Blood samples (approximately 3 mL) were withdrawn at 0, 4, 6, 8, 10, 12, 13, 14, and 24 h intervals after the last dose and centrifuged at 3000× g for 10 min; the supernatant plasma samples were stored at −80 °C.
Briefly, to analyze GRb1, GRb2, GRc, GRd, GRe, GRf, GRg1, GRg3, GF1, and GF2, 400 μL of an internal standard (IS; 0.05 ng/mL berberine in methanol) was added to 100 μL of plasma. The mixture was vortexed for 15 min and centrifuged at 16,000× g for 5 min. After centrifugation, 400 μL of the supernatant was evaporated using a speed-dry vacuum concentrator (Christ, Osterode am Harz, Germany). The residue was reconstituted using 200 μL of 70% methanol supplemented with 0.1% formic acid, and a 10 μL aliquot was injected into the LC-MS/MS system. Chromatographic separation was performed using a Polar RP column (150 × 2.0 mm, 4.0 μm particle size; Phenomenex, Torrance, CA, USA) using a mobile phase consisting of 0.1% formic acid in water (phase A) and 0.1% formic acid in methanol (phase B). The following elution gradient was used: 69% of phase B for 0–2.0 min, 69–85% of phase B for 2.0–4.0 min, and 85–69% of phase B for 6.0–6.5 min. The flow rate was 0.27 mL/min.
The mixture was vortexed for 10 min and centrifuged at 16,000× g for 5 min. After centrifugation, the samples were frozen at −80 °C for 4 h. The upper layer was transferred to a clean tube and evaporated. The residue was reconstituted using 200 μL of 80% methanol supplemented with 0.1% formic acid, and a 10 μL aliquot was injected into the LC-MS/MS system. Chromatographic separation was performed using a Luna C18 column (150 × 2.0 mm, 3.0 μm particle size; Phenomenex, Torrance, CA, USA) and using a mobile phase consisting of water containing 0.1% formic acid: methanol containing 0.1% formic acid = 8:92 (v/v) at a flow rate of 0.15 mL/min.
The quantification of ginsenosides was carried out using multiple reaction monitoring in positive ionization mode, as previously described.
Finally, pharmacokinetic parameters were calculated using non-compartmental methods (WinNonlin version 5.1; Pharsight Co., Certara, NJ, USA). Statistical analysis was performed by Student’s t-test to compare the two groups using IBM SPSS Statistics for Windows (version 25.0; IBM Corp., Armonk, NY, USA). Differences were considered significant at p < 0.05.

The conditions of data set [4]: rat, in vivo, po; cited from earlier work.

T1 sequence (P08183 whole entry): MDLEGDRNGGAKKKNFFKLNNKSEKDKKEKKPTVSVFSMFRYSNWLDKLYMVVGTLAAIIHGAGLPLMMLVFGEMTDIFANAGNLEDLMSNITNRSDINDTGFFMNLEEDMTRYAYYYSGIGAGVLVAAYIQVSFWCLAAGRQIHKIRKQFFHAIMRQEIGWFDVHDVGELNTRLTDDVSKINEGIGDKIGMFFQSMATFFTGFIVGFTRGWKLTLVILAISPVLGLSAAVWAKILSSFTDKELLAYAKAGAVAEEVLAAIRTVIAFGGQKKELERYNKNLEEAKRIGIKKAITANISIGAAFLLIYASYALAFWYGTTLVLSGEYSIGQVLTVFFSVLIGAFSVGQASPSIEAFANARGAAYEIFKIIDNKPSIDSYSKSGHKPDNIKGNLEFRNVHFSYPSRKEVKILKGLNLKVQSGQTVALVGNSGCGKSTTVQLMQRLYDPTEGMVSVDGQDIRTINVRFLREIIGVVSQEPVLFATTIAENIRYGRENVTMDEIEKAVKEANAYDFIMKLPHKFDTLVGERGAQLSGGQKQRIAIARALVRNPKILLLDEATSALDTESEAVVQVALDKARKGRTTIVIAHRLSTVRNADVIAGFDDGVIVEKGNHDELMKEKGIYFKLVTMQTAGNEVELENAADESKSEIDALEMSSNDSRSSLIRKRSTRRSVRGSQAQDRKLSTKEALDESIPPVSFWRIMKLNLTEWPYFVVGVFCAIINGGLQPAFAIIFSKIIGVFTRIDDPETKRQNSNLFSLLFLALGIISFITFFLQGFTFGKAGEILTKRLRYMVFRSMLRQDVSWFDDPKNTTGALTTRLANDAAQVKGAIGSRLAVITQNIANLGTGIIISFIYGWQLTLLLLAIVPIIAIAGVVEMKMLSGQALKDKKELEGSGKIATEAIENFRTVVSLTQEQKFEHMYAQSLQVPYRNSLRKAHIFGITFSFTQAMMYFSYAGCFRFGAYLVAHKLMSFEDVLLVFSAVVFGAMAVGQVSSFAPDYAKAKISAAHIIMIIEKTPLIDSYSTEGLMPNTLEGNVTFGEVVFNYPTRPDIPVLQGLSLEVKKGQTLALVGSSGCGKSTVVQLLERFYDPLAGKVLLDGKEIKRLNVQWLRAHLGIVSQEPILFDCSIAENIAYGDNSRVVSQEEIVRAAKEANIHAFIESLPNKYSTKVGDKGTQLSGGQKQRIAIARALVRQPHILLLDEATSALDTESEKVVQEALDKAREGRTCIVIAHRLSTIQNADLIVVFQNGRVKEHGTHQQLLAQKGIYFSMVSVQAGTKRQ

On to `CC(C)=CCCC(C)(O)C1CCC2(C)C1C(O)CC1C3(C)CCC(O)C(C)(C)C3CCC12C` (stereo not shown) [PPD, 20(s)-protopanaxadiol], for which the “CLint (intrinsic clearance)” value on P-gp (P-gp-mediated B to A transport in LLC-PK1-P-gp cells) turned out to be 5.2 µL/min. The efflux ratio at 20 μM on P-gp (pig, LLC-PK1, LLC-PK1-P-gp cells, 20 μM, B to A Papp divided by A to B Papp, read-out: ER) amounted to 3.3. In addition, the Papp A→B at 20 μM at P-gp (pig, LLC-PK1-P-gp cells, 20 μM, mean ± SD, n = 3, read-out: A to B permeability) amounted to 0.13 ± 0.01 ×10⁻⁶ cm/s. In addition, the Papp B→A at 20 μM at P-gp (pig, LLC-PK1-P-gp cells, 20 μM, mean ± SD, n = 3, read-out: B to A permeability) came out at 0.42 ± 0.04 ×10⁻⁶ cm/s. The “AUC fold increase with LAB supplementation compared to control groups” value in data set [1] is on record as 2.67 fold. For the same compound, in the data set with LAB, the “Relative abundance / metabolic activity following fermentation of RGE with LAB” value is given as “significantly increased”. The efflux ratio at 50 µM in data set [2] is 2.7. Also, in data set [3], the AUC is 130 ± 39.9 ng·h/mL, the highest level (Cmax) was 7.6 ± 1.7 ng/mL, the mean residence time (MRT) came to 18.6 ± 5 h and the Tmax was determined as 16 ± 18.5 h. In data set [4], the “Oral BA” value was 36.8–48.1% and the “Oral bioavailability (BA)” value is given as 36.8–48.1%.

On P-gp (pig, LLC-PK1), `CC(C)=CCCC(C)(O)C1CCC2(C)C1C(O)CC1C3(C)CCC(O)C(C)(C)C3C(O)CC12C` (stereo not shown) [PPT, 20(s)-protopanaxatriol] registered a Papp A→B at 20 μM of 3.73 ± 0.56 ×10⁻⁶ cm/s and a Papp B→A at 20 μM of 10 ± 1.1 ×10⁻⁶ cm/s. On P-gp (pig, LLC-PK1, ER), the efflux ratio at 20 μM stood at 2.7. Moreover, the “CLint (intrinsic clearance)” value at P-gp (pig, llc-pk1) is 231 µL/min. In addition, in data set [1], the “AUC fold increase with LAB supplementation compared to control groups” value was 1.63 fold. For the same compound, in the data set with LAB, the “Relative abundance / metabolic activity following fermentation of RGE with LAB” value is listed as “significantly increased”. Besides, the efflux ratio at 50 µM in data set [2] was 2.7. In data set [3], the AUC worked out at 59.9 ± 49.2 ng·h/mL, the Cmax was 9.5 ± 4.8 ng/mL, the mean residence time MRT came to 19.4 ± 10.5 h and the time to peak (Tmax) was 17.4 ± 17.4 h. Further, the “Oral BA” value in data set [4] is 3.7%.
